≈ marks a conversion by molar mass, not a printed value.
Columns and labels:
[1] = tested on: Staphylococcus aureus; assay: Antibacterial activity against Staphylococcus aureus ATCC 29213 incubated for 16 to 18 hrs CLSI based by microbroth dilution assay; format: functional; details: time 16-18 hrs
[2] = tested on: Escherichia coli; assay: Antibacterial activity against Escherichia coli ATCC 25922 incubated for 16 to 18 hrs CLSI based by microbroth dilution assay; format: functional; details: time 16-18 hrs
[3] = tested on: Staphylococcus aureus; assay: Antibacterial activity against methicillin-resistant Staphylococcus aureus clinical isolate M-1 incubated for 16 to 18 hrs CLSI based by microbroth dilution assay; format: functional; details: time 16-18 hrs
[4] = tested on: Staphylococcus aureus; assay: Antibacterial activity against methicillin-resistant Staphylococcus aureus clinical isolate M-2 incubated for 16 to 18 hrs CLSI based by microbroth dilution assay; format: functional; details: time 16-18 hrs
[5] = tested on: Staphylococcus aureus; assay: Antibacterial activity against methicillin-resistant Staphylococcus aureus clinical isolate M-3 incubated for 16 to 18 hrs CLSI based by microbroth dilution assay; format: functional; details: time 16-18 hrs
[6] = tested on: Staphylococcus aureus; assay: Antibacterial activity against methicillin-resistant Staphylococcus aureus clinical isolate M-4 incubated for 16 to 18 hrs CLSI based by microbroth dilution assay; format: functional; details: time 16-18 hrs
[7] = tested on: Staphylococcus aureus; assay: Antibacterial activity against methicillin-resistant Staphylococcus aureus clinical isolate M-5 incubated for 16 to 18 hrs CLSI based by microbroth dilution assay; format: functional; details: time 16-18 hrs
[8] = tested on: Staphylococcus aureus; assay: Antibacterial activity against methicillin-resistant Staphylococcus aureus clinical isolate M-6 incubated for 16 to 18 hrs CLSI based by microbroth dilution assay; format: functional; details: time 16-18 hrs
[9] = tested on: Staphylococcus aureus; assay: Antibacterial activity against methicillin-resistant Staphylococcus aureus clinical isolate M-7 incubated for 16 to 18 hrs CLSI based by microbroth dilution assay; format: functional; details: time 16-18 hrs
[10] = tested on: Staphylococcus aureus; assay: Antibacterial activity against methicillin-resistant Staphylococcus aureus clinical isolate M-8 incubated for 16 to 18 hrs CLSI based by microbroth dilution assay; format: functional; details: time 16-18 hrs
[11] = tested on: Staphylococcus aureus; assay: Antibacterial activity against methicillin-resistant Staphylococcus aureus clinical isolate M-9 incubated for 16 to 18 hrs CLSI based by microbroth dilution assay; format: functional; details: time 16-18 hrs
[12] = tested on: Staphylococcus aureus; assay: Antibacterial activity against methicillin-resistant Staphylococcus aureus clinical isolate M-10 incubated for 16 to 18 hrs CLSI based by microbroth dilution assay; format: functional; details: time 16-18 hrs
[13] = Hemolytic activity in sheep erythrocytes incubated for 1 hr by absorbance based assay; format: toxicity, cell-based, Ovis aries, Erythrocyte
[14] = Selectivity index, ratio of HC50 for sheep erythrocytes to MIC for Staphylococcus aureus ATCC 29213; format: toxicity; details: read-out: Selectivity Index

SMILES | MIC [1] [µg/mL] | MIC [2] [µg/mL] | MIC [3] [µg/mL] | MIC [4] [µg/mL] | MIC [5] [µg/mL] | MIC [6] [µg/mL] | MIC [7] [µg/mL] | MIC [8] [µg/mL] | MIC [9] [µg/mL] | MIC [10] [µg/mL] | MIC [11] [µg/mL] | MIC [12] [µg/mL] | HC50 at 1 h [13] [µg/mL] | selectivity ratio [14]
CCCCCCNC(=O)C[N+](C)(C)CCCn1c(-c2ccc(N(C)C)cc2)nc2c3ccccc3c3ccccc3c21.[Br-] | 64 | > 128 | 64 | 128 | 64 | 64 | 64 | 128 | 64 | 128 | 64 | 64 | > 640 | > 10
CCN(CC)C(=O)C[N+](C)(C)CCCn1c(-c2ccc(N(C)C)cc2)nc2c3ccccc3c3ccccc3c21.[Br-] | 64 | > 128 | 64 | 64 | 64 | 64 | 64 | 128 | 64 | 128 | 64 | 64 | > 640 | > 10
CCCNC(=O)C[N+](C)(C)CCCCCn1c(-c2ccc(N(C)C)cc2)nc2c3ccccc3c3ccccc3c21.[Br-] | 8 | 64 | 8 | 8 | 4 | 4 | 8 | 8 | 4 | 4 | 4 | 8 | 735 | 91.9
CN(C)c1ccc(-c2nc3c4ccccc4c4ccccc4c3n2CCCCC[N+](C)(C)CC(=O)N2CCSCC2)cc1.[Br-] | 4 | > 128 | 8 | 8 | 4 | 4 | 8 | 4 | 4 | 4 | 4 | 8 | > 640 | > 160
CCCN(CCC)C(=O)C[N+](C)(C)CCCn1c(-c2ccc(N(C)C)cc2)nc2c3ccccc3c3ccccc3c21.[Br-] | 32 | > 128 | 32 | 32 | 32 | 32 | 32 | 64 | 16 | 64 | 32 | 32 | > 640 | > 20
CCCCCNC(=O)C[N+](C)(C)CCCCn1c(-c2ccccc2)nc2c3ccccc3c3ccccc3c21.[Br-] | 4 | 32 | 2 | 4 | 4 | 2 | 2 | 2 | 2 | 2 | 2 | 2 | – | –
CCCN(CCC)C(=O)C[N+](C)(C)CCCCn1c(-c2ccc(N(C)C)cc2)nc2c3ccccc3c3ccccc3c21.[Br-] | 4 | 128 | 4 | 4 | 4 | 4 | 4 | 4 | 4 | 4 | 4 | 4 | 213 | 53.3
CCCNC(=O)C[N+](C)(C)CCCCn1c(-c2ccc(N(C)C)cc2)nc2c3ccccc3c3ccccc3c21.[Br-] | 8 | 64 | 16 | 8 | 8 | 8 | 16 | 8 | 4 | 4 | 8 | 16 | 290 | 36.3
CCNC(=O)C[N+](C)(C)CCCCCn1c(-c2ccc(N(C)C)cc2)nc2c3ccccc3c3ccccc3c21.[Br-] | 16 | 128 | 32 | 32 | 32 | 32 | 32 | 32 | 16 | 32 | 32 | 32 | > 640 | > 40
CCN(CC)C(=O)C[N+](C)(C)CCCCCn1c(-c2ccc(N(C)C)cc2)nc2c3ccccc3c3ccccc3c21.[Br-] | 16 | 128 | 8 | 8 | 8 | 8 | 8 | 8 | 8 | 8 | 8 | 8 | 1080 | 67.8
CC(C)N(C(=O)C[N+](C)(C)CCCCCn1c(-c2ccc(N(C)C)cc2)nc2c3ccccc3c3ccccc3c21)C(C)C.[Br-] | 4 | > 128 | 4 | 4 | 4 | 4 | 4 | 4 | 4 | 2 | 4 | 4 | 688 | 167
C[C@@H](O)[C@H]1C(=O)N2C(C(=O)O)=C(S[C@@H]3CN[C@H](C(=O)N(C)C)C3)[C@H](C)[C@H]12 [MEROPENEM] | – | 0.063 (≈ 0.164 µM) | – | – | – | – | – | – | – | – | – | – | – | –
CCCCCCNC(=O)C[N+](C)(C)CCCCn1c(-c2ccc(N(C)C)cc2)nc2c3ccccc3c3ccccc3c21.[Br-] | 2 | 32 | 2 | 2 | 2 | 2 | 2 | 2 | 1 | 1 | 1 | 2 | 353 | 176
CCCNC(=O)C[N+](C)(C)CCCn1c(-c2ccc(N(C)C)cc2)nc2c3ccccc3c3ccccc3c21.[Br-] | 32 | > 128 | 64 | 32 | 64 | 32 | 64 | 64 | 32 | 64 | 32 | 64 | > 640 | > 20
CCCCN(CCCC)C(=O)C[N+](C)(C)CCCCn1c(-c2ccc(N(C)C)cc2)nc2c3ccccc3c3ccccc3c21.[Br-] | 1 | 64 | 2 | 1 | 0.5 | 1 | 2 | 0.5 | 0.5 | 1 | 1 | 1 | 79.5 | 79.5
